Data taken from the NIST ThermoML archive (doi:10.1016/j.jct.2016.08.010).

Columns and labels:
[1] = xn = mol fraction of the nth substance listed; conditions: 100 kPa, Liquid; for speed of sound: Frequency=3 MHz, Sing-around technique in a fixed-path interferometer; for mass density: Vibrating tube method
[2] = excess molar enthalpy (molar enthalpy of mixing); xn = mol fraction of the nth substance listed; conditions: 298.15 K, 100 kPa, Liquid, Power-compensation calorimetry

CCn1cc[n+](C)c1.F[B-](F)(F)F [1-ethyl-3-methylimidazolium tetrafluoroborate] + CCCCn1cc[n+](C)c1.F[B-](F)(F)F
[1]
Conditions	mass density, 293.15 K [kg/m3]	mass density, 298.15 K [kg/m3]	mass density, 303.15 K [kg/m3]	mass density, 308.15 K [kg/m3]	speed of sound, 293.15 K [m/s]	speed of sound, 298.15 K [m/s]	speed of sound, 303.15 K [m/s]	speed of sound, 308.15 K [m/s]
x2 = 0	1283.9	1279.9	1276.3	1272.1	1631.1	1619.2	1607.4	1596.2
x2 = 0.0728	1274.4	1270.8	1267.5	1263.8	1628.1	1616	1604	1592.6
x2 = 0.1143	1269.1	1265.7	1262.6	1259.1	1626.4	1614.2	1602.2	1590.6
x2 = 0.148	1264.9	1261.6	1258.7	1255.3	1625	1612.7	1600.7	1589.1
x2 = 0.1737	1261.8	1258.6	1255.7	1252.4	1624	1611.6	1599.5	1587.9
x2 = 0.2204	1256.4	1253.2	1250.5	1247.4	1622	1609.6	1597.5	1585.7
x2 = 0.2684	1251.1	1248	1245.3	1242.3	1620	1607.5	1595.3	1583.5
x2 = 0.3155	1246.2	1243.1	1240.5	1237.6	1618	1605.4	1593.3	1581.3
x2 = 0.3619	1241.6	1238.6	1236	1233.2	1616	1603.3	1591.2	1579.1
x2 = 0.4167	1236.6	1233.6	1231.1	1228.3	1613.6	1600.8	1588.7	1576.6
x2 = 0.4759	1231.8	1228.7	1226.1	1223.4	1610.8	1598	1585.9	1573.7
x2 = 0.5282	1227.9	1224.7	1222.2	1219.4	1608.3	1595.5	1583.3	1571.1
x2 = 0.5742	1224.7	1221.5	1218.9	1216.1	1605.9	1593.1	1581	1568.8
x2 = 0.6356	1220.9	1217.6	1214.9	1212.1	1602.7	1589.8	1577.7	1565.6
x2 = 0.6835	1218.1	1214.8	1212.1	1209.1	1600	1587.1	1575.1	1563
x2 = 0.7381	1215.3	1211.8	1209	1206	1596.7	1583.9	1572	1559.8
x2 = 0.7892	1212.8	1209.2	1206.3	1203.2	1593.5	1580.7	1568.8	1556.8
x2 = 0.8364	1210.6	1206.9	1203.9	1200.6	1590.4	1577.6	1565.8	1553.8
x2 = 0.8932	1208	1204.2	1201	1197.6	1586.4	1573.7	1562	1550

[2]
Conditions	excess molar enthalpy [kcal/mol]
x2 = 0.0714	0.00215
x2 = 0.1234	0.00387
x2 = 0.1781	0.00574
x2 = 0.2396	0.00786
x2 = 0.2944	0.00946
x2 = 0.3468	0.0108
x2 = 0.3972	0.0117
x2 = 0.4428	0.0123
x2 = 0.4859	0.0126
x2 = 0.5374	0.0126
x2 = 0.5884	0.0122
x2 = 0.6291	0.0117
x2 = 0.6724	0.0109
x2 = 0.7172	0.00975
x2 = 0.7639	0.00839
x2 = 0.8109	0.00684
x2 = 0.8642	0.00485
x2 = 0.9077	0.00327
